Results: US12679878B2, “CRF2 receptor agonists and their use in therapy” (SANOFI, priority 2020, dated 2026)
Starred links: 1 amine or outer side, 2 acyl side, 3 side chain; linkers in the order of their positions; H or OH if unused. Non-standard residues stand in square brackets, D forms with d. Residues, ends and D or L forms follow the SMILES beside them. Groups on a side chain read outwards from the residue. *: point of attachment. C18 diacid = O=C(O)CCCCCCCCCCCCCCCCC(=O)*; γGlu = O=C(O)[C@H](CCC(=O)[*:2])N[*:1]; AEEA = NCCOCCOCC(=O)O; Aib = CC(C)(N)C(=O)O

Target: T1, human CRF2α receptor (Homo sapiens, UniProt Q13324)
T1 construct: expressed in transfected cells; host or cells: TeloHEAC
T1 sequence (Q13324 1-411): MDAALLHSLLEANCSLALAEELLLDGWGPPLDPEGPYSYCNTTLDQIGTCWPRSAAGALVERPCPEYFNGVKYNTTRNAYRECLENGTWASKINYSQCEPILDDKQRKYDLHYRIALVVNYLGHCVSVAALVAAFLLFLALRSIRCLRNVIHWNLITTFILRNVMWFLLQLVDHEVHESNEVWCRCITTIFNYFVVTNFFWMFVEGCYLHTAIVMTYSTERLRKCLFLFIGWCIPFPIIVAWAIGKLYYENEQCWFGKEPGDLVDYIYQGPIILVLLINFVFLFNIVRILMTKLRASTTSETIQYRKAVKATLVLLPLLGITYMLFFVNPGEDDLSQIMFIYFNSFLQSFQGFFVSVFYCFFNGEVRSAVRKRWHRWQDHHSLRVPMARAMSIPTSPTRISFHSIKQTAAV
Assay: cAMP agonism at human CRF2 α receptor in TeloHEAC cells (Example 7)
Assay type: cell-based
Settings: cAMP HTRF, TeloHEAC cells stably expressing human CRF2 α, 0% HSA; read-out: EC50 [nM], 0% HSA
Procedure, shortened: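 HTRF ratio 665/620 nm, read 1 h after lysis reagents, reports cAMP. Cells: thawed stocks, 2000/well, 30 min RT with compound in HBSS, 20 mM HEPES, 0 or 0.1% HSA, 2 mM IBMX. Activity normalised to UCN2 1000 nM = 100%; EC50 from half-maximal activation.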

SMILES | EC50
CC[C@H](C)[C@H](N)C(=O)N[C@H](C(=O)N[C@@H](CC(C)C)C(=O)N[C@@H](CO)C(=O)N[C@@H](CC(C)C)C(=O)N[C@@H](CC(=O)O)C(=O)N[C@H](C(=O)N1CCC[C@H]1C(=O)N[C@H](C(=O)N[C@@H](CCCCN)C(=O)N[C@@H](CC(C)C)C(=O)N[C@@H](CCCCNC(=O)COCCOCCNC(=O)COCCOCCNC(=O)CC[C@H](NC(=O)CCCCCCCCCCCCCCCCC(=O)O)C(=O)O)C(=O)N[C@@H](CCC(N)=O)C(=O)N[C@@H](CCCCN)C(=O)N[C@@H](CC(C)C)C(=O)N[C@@H](CC(C)C)C(=O)N[C@@H](CCCCN)C(=O)N[C@@H](CCC(N)=O)C(=O)N[C@@H](CCC(=O)O)C(=O)N[C@@H](CCCNC(=N)N)C(=O)N[C@@H](CCC(N)=O)C(=O)N[C@@H](CCCCN)C(=O)N[C@@H](CCCCN)C(=O)N[C@@H](CCC(=O)O)C(=O)N[C@@H](CCCNC(=N)N)C(=O)N[C@@H](CCC(=O)O)C(=O)N[C@@H](CCC(N)=O)C(=O)N[C@@H](C)C(=O)N[C@@H](CCC(=O)O)C(=O)N[C@H](C(=O)N[C@@H](CC(N)=O)C(=O)N[C@@H](CCCCN)C(=O)N[C@@H](CCC(N)=O)C(=O)N[C@H](C(=O)N[C@@H](CC(C)C)C(=O)N[C@@H](C)C(=O)N[C@@H](CCC(N)=O)C(=O)N[C@H](C(N)=O)C(C)C)[C@@H](C)CC)[C@@H](C)O)[C@@H](C)CC)C(C)C)C(C)C [compound 95] (H-IVLSLDVPIKLK([AEEA-AEEA-γGlu-C18 diacid])QKLLKQERQKKEREQAETNKQILAQV-NH2; N-terminus assumed) | 25 nM
CC[C@H](C)[C@H](N)C(=O)N[C@H](C(=O)N[C@@H](CC(C)C)C(=O)N[C@@H](CO)C(=O)N[C@@H](CC(C)C)C(=O)N[C@@H](CC(=O)O)C(=O)N[C@H](C(=O)N1CCC[C@H]1C(=O)N[C@H](C(=O)N[C@@H](CCCCN)C(=O)N[C@@H](CC(C)C)C(=O)N[C@@H](CCCCNC(=O)COCCOCCNC(=O)COCCOCCNC(=O)CC[C@H](NC(=O)CCCCCCCCCCCCCCCCC(=O)O)C(=O)O)C(=O)N[C@@H](CCC(N)=O)C(=O)N[C@@H](CCCCN)C(=O)N[C@@H](CC(C)C)C(=O)N[C@@H](CC(C)C)C(=O)N[C@@H](CCCCN)C(=O)N[C@@H](CCC(N)=O)C(=O)N[C@@H](CCC(=O)O)C(=O)N[C@@H](CCCNC(=N)N)C(=O)N[C@@H](CCC(N)=O)C(=O)N[C@@H](CCCCN)C(=O)N[C@@H](CCCCN)C(=O)N[C@@H](CCC(N)=O)C(=O)N[C@@H](CCCNC(=N)N)C(=O)N[C@@H](CCC(=O)O)C(=O)N[C@@H](CCC(N)=O)C(=O)N[C@@H](C)C(=O)N[C@@H](CCC(=O)O)C(=O)N[C@H](C(=O)N[C@@H](CC(N)=O)C(=O)N[C@@H](CCCCN)C(=O)N[C@@H](CCC(N)=O)C(=O)N[C@H](C(=O)N[C@@H](CC(C)C)C(=O)N[C@@H](C)C(=O)N[C@@H](CCC(N)=O)C(=O)N[C@H](C(N)=O)C(C)C)[C@@H](C)CC)[C@@H](C)O)[C@@H](C)CC)C(C)C)C(C)C [compound 97] (H-IVLSLDVPIKLK([AEEA-AEEA-γGlu-C18 diacid])QKLLKQERQKKQREQAETNKQILAQV-NH2) | 1.66 nM
CC[C@H](C)[C@H](N)C(=O)N[C@H](C(=O)N[C@@H](CC(C)C)C(=O)N[C@@H](CO)C(=O)N[C@@H](CC(C)C)C(=O)N[C@@H](CC(=O)O)C(=O)N[C@H](C(=O)N1CCC[C@H]1C(=O)N[C@H](C(=O)N[C@@H](CCCCN)C(=O)N[C@@H](CC(C)C)C(=O)N[C@@H](CCCCNC(=O)COCCOCCNC(=O)COCCOCCNC(=O)CC[C@H](NC(=O)CCCCCCCCCCCCCCCCC(=O)O)C(=O)O)C(=O)N[C@@H](CCC(N)=O)C(=O)N[C@@H](CCCCN)C(=O)N[C@@H](CC(C)C)C(=O)N[C@@H](CC(C)C)C(=O)N[C@@H](CCCCN)C(=O)N[C@@H](CCC(N)=O)C(=O)N[C@@H](CCC(=O)O)C(=O)N[C@@H](CCCNC(=N)N)C(=O)N[C@@H](CCC(N)=O)C(=O)N[C@@H](CCCCN)C(=O)N[C@@H](CCCCN)C(=O)NC(C)(C)C(=O)N[C@@H](CCCNC(=N)N)C(=O)N[C@@H](CCC(=O)O)C(=O)N[C@@H](CCC(N)=O)C(=O)N[C@@H](C)C(=O)N[C@@H](CCC(=O)O)C(=O)N[C@H](C(=O)N[C@@H](CC(N)=O)C(=O)N[C@@H](CCCCN)C(=O)N[C@@H](CCC(N)=O)C(=O)N[C@H](C(=O)N[C@@H](CC(C)C)C(=O)N[C@@H](C)C(=O)N[C@@H](CCC(N)=O)C(=O)N[C@H](C(N)=O)C(C)C)[C@@H](C)CC)[C@@H](C)O)[C@@H](C)CC)C(C)C)C(C)C [compound 98] (H-IVLSLDVPIKLK([AEEA-AEEA-γGlu-C18 diacid])QKLLKQERQKK[Aib]REQAETNKQILAQV-NH2; N-terminus assumed) | 2.36 nM

Second part, the molecule after the results:

EC50 | SMILES
0.81 nM | CC[C@H](C)[C@H](N)C(=O)N[C@H](C(=O)N[C@@H](CC(C)C)C(=O)N[C@@H](CO)C(=O)N[C@@H](CC(C)C)C(=O)N[C@@H](CC(=O)O)C(=O)N[C@H](C(=O)N1CCC[C@H]1C(=O)N[C@H](C(=O)N[C@@H](CCCCN)C(=O)N[C@@H](CC(C)C)C(=O)N[C@@H](CCCCNC(=O)COCCOCCNC(=O)COCCOCCNC(=O)CC[C@H](NC(=O)CCCCCCCCCCCCCCCCC(=O)O)C(=O)O)C(=O)N[C@@H](CCC(N)=O)C(=O)N[C@H](C(=O)N[C@@H](CC(C)C)C(=O)N[C@@H](CC(C)C)C(=O)N[C@@H](CCCCN)C(=O)N[C@@H](CCC(N)=O)C(=O)N[C@@H](CCC(=O)O)C(=O)N[C@@H](CCCNC(=N)N)C(=O)N[C@@H](CCC(N)=O)C(=O)N[C@@H](CCCCN)C(=O)NC(C)(C)C(=O)N[C@@H](CCC(N)=O)C(=O)N[C@@H](CCCNC(=N)N)C(=O)N[C@@H](CCC(=O)O)C(=O)N[C@@H](CCC(N)=O)C(=O)N[C@@H](C)C(=O)N[C@@H](CCC(=O)O)C(=O)N[C@H](C(=O)N[C@@H](CC(N)=O)C(=O)N[C@@H](CCCCN)C(=O)N[C@@H](CCC(N)=O)C(=O)N[C@H](C(=O)N[C@@H](CC(C)C)C(=O)N[C@@H](CCC(=O)O)C(=O)N[C@@H](CCCNC(=N)N)C(=O)N[C@H](C(N)=O)C(C)C)[C@@H](C)CC)[C@@H](C)O)[C@@H](C)CC)[C@@H](C)CC)C(C)C)C(C)C [compound 107] (H-IVLSLDVPIKLK([AEEA-AEEA-γGlu-C18 diacid])QILLKQERQK[Aib]QREQAETNKQILERV-NH2)
2.77 nM | CC[C@H](C)[C@H](N)C(=O)N[C@H](C(=O)N[C@@H](CC(C)C)C(=O)N[C@@H](CO)C(=O)N[C@@H](CC(C)C)C(=O)N[C@@H](CC(=O)O)C(=O)N[C@H](C(=O)N1CCC[C@H]1C(=O)N[C@H](C(=O)N[C@@H](CCCCN)C(=O)N[C@@H](CC(C)C)C(=O)N[C@@H](CCCCNC(=O)COCCOCCNC(=O)COCCOCCNC(=O)CC[C@H](NC(=O)CCCCCCCCCCCCCCCCC(=O)O)C(=O)O)C(=O)N[C@@H](CCC(N)=O)C(=O)N[C@H](C(=O)N[C@@H](CC(C)C)C(=O)N[C@@H](CC(C)C)C(=O)N[C@@H](CCCCN)C(=O)N[C@@H](CCC(N)=O)C(=O)N[C@@H](CCC(=O)O)C(=O)N[C@@H](CCCNC(=N)N)C(=O)N[C@@H](CCC(N)=O)C(=O)N[C@@H](CCCCN)C(=O)NC(C)(C)C(=O)N[C@@H](CCC(N)=O)C(=O)N[C@@H](CCCNC(=N)N)C(=O)N[C@@H](CCC(=O)O)C(=O)N[C@@H](CCC(N)=O)C(=O)N[C@@H](C)C(=O)N[C@@H](CCC(=O)O)C(=O)N[C@@H](CCCCN)C(=O)N[C@@H](CC(N)=O)C(=O)N[C@@H](CCCCN)C(=O)N[C@@H](CCC(N)=O)C(=O)N[C@H](C(=O)N[C@@H](CC(C)C)C(=O)N[C@@H](CCC(=O)O)C(=O)N[C@@H](CCCNC(=N)N)C(=O)N[C@H](C(N)=O)C(C)C)[C@@H](C)CC)[C@@H](C)CC)[C@@H](C)CC)C(C)C)C(C)C [compound 115] (H-IVLSLDVPIKLK([AEEA-AEEA-γGlu-C18 diacid])QILLKQERQK[Aib]QREQAEKNKQILERV-NH2; N-terminus assumed)

Same assay, conditions: cAMP HTRF, TeloHEAC cells stably expressing human CRF2 α, 0.1% HSA; read-out: EC50 [nM], 0.1% HSA

EC50 | SMILES
16.1 nM | CC[C@H](C)[C@H](N)C(=O)N[C@H](C(=O)N[C@@H](CC(C)C)C(=O)N[C@@H](CO)C(=O)N[C@@H](CC(C)C)C(=O)N[C@@H](CC(=O)O)C(=O)N[C@H](C(=O)N1CCC[C@H]1C(=O)N[C@H](C(=O)N[C@@H](CCCCN)C(=O)N[C@@H](CC(C)C)C(=O)N[C@@H](CCCCNC(=O)COCCOCCNC(=O)COCCOCCNC(=O)CC[C@H](NC(=O)CCCCCCCCCCCCCCCCC(=O)O)C(=O)O)C(=O)N[C@@H](CCC(N)=O)C(=O)N[C@H](C(=O)N[C@@H](CC(C)C)C(=O)N[C@@H](CC(C)C)C(=O)N[C@@H](CCCCN)C(=O)N[C@@H](CCC(N)=O)C(=O)N[C@@H](CCC(=O)O)C(=O)N[C@@H](CCCNC(=N)N)C(=O)N[C@@H](CCC(N)=O)C(=O)N[C@@H](CCCCN)C(=O)NC(C)(C)C(=O)N[C@@H](CCC(N)=O)C(=O)N[C@@H](CCCNC(=N)N)C(=O)N[C@@H](CCC(=O)O)C(=O)N[C@@H](CCC(N)=O)C(=O)N[C@@H](C)C(=O)N[C@@H](CCC(=O)O)C(=O)N[C@H](C(=O)N[C@@H](CC(N)=O)C(=O)N[C@@H](CCCCN)C(=O)N[C@@H](CCC(N)=O)C(=O)N[C@H](C(=O)N[C@@H](CC(C)C)C(=O)N[C@@H](CCC(=O)O)C(=O)N[C@@H](CCCNC(=N)N)C(=O)N[C@H](C(N)=O)C(C)C)[C@@H](C)CC)[C@@H](C)O)[C@@H](C)CC)[C@@H](C)CC)C(C)C)C(C)C [compound 107] (H-IVLSLDVPIKLK([AEEA-AEEA-γGlu-C18 diacid])QILLKQERQK[Aib]QREQAETNKQILERV-NH2)
